Data taken from patent publication US20220154404A1, “Active Materials, Surfaces, Surface Treatments And Methods For Packaging Materials, Boxes, And Containers Using Photosensitizers For Pathogen Reduction” (Mi2 Holdings LLC, priority 2020, published 2022).
Where two headings read alike, the source gives them in different places.

Key:
[1] = ideal solvent; cited from earlier work
[2] = cited from earlier work; for Epsilon: ideal solvent
[3] = Absorption characteristics of photosensitizers with peak absorptions in visible light (Lambda Max, Epsilon); type: physicochemical; conditions: determined in water
Description: Examples of photosensitizers having peak absorptions in visible light and their absorption characteristics is: […]

[4] = cited from earlier work

| Molecule | Singlet Oxygen QY [1] | Lambda Max ([2]; first or only peak) | Epsilon ([2]; first or only peak) | Epsilon ([2]; second peak (after the slash)) | Lambda Max ([2]; second peak (after the slash)) | Epsilon ([3]; first or only peak) | Epsilon ([3]; second peak (after the slash)) | water solubility [4] |
| --- | --- | --- | --- | --- | --- | --- | --- | --- |
| C=Cc1c(C)c2cc3nc(c(CC(=O)N[C@@H](CC(=O)O)C(=O)O)c4[nH]c(cc5nc(cc1[nH]2)C(C)=C5CC)c(C)c4C(=O)O)[C@@H](CCC(=O)O)[C@@H]3C [Talaporfin (LS11, MACE, NPs6), Talaporfin] | 0.77 | 400 | 180,000 | 40,000 | 654 | – | – | – |
| O.O=C([O-])c1ccccc1-c1c2cc(I)c(=O)c(I)c-2oc2c(I)c([O-])c(I)cc12.[Na+].[Na+] [Erythrosin B] | 0.63 | 530 | 82,000 | – | – | – | – | – |
| C=Cc1c(C)c2cc3nc(c(CC(=O)O)c4[nH]c(cc5nc(cc1[nH]2)C(C)=C5CC)c(C)c4C(=O)O)[C@@H](CCC(=O)O)[C@@H]3C [Chlorin e6, chlorin e6] | 0.65 | 400 | – | – | 650 | 150,000 | 30,000 | – |
| IRDye 700DX HHS Ester [IR700] | – | – | – | – | – | – | – | good solubility |
| O=C([O-])c1ccccc1-c1c2cc(Br)c(=O)c(Br)c-2oc2c(Br)c([O-])c(Br)cc12.[Na+].[Na+] [Eosin Y] | – | 525 | 112,000 | – | – | – | – | – |
| CN(C)c1ccc2nc3ccc(=[N+](C)C)cc-3sc2c1 [Methylene Blue, methylene blue (CAS #61-73-4)] | 0.52 | 665 | – | – | – | 48,000 | – | – |
| Verteporfin | – | 435 | ~70,000 | – | – | – | – | – |
| O=C([O-])c1c(Cl)c(Cl)c(Cl)c(Cl)c1-c1c2cc(I)c(=O)c(I)c-2oc2c(I)c([O-])c(I)cc12.[Na+].[Na+] [Rose Bengal, Rose Bengal (CAS #632-69-9)] | 0.76 | 562 | 90,000 | – | – | – | – | – |
| CCNc1cc2[s+]c3cc(NCC)c(C)cc3nc2cc1C.[Cl-] [New MB] | – | 630 | – | – | – | 64,000 | – | – |
